From publication PMC7178524, “Comparative Pharmacokinetic Profiles of Puerarin in Rat Plasma by UHPLC-MS/MS after Oral Administration of Pueraria lobata Extract and Pure Puerarin” (Journal of Analytical Methods in Chemistry, 2020)

Experiments:
[1] = test system: P-gp; conditions: after added verapamil (P-gp inhibitor); ref "Studies have found", no number given; cited from earlier work
[2] = test system: MRP2; conditions: after added probenecid (MRP2 inhibitor); ref "Studies have found", no number given; cited from earlier work
[3] = Pharmacokinetics of PUR in rat plasma after single oral administration, UHPLC-MS/MS; format: in vivo, male Wistar rats
Description: Male Wistar rats (250−270 g) were purchased from the SPF (Beijing) Biotechnology Co., Ltd. (Beijing, China). The rats were then housed in an animal room to adapt to the environment for a week at standard temperature (23−28°C), humidity (50−65%), free diet, and tap water. Rats were fasted for 12 h before pharmacokinetic experiments and allowed free access to water and sugar during sample collection. Both PUR and PLE were dispersed in a 0.5% carboxymethyl cellulose solution and then sonicated to obtain a homogeneous suspension. A whole blood sample was collected from the infraorbital vein and immediately centrifuged at 3,500 rpm for 10 minutes at 4°C to obtain plasma. Plasma was stored at −20°C for later analysis. The experimental protocol was approved by the Animal Experiment Ethics Review Committee of Jiangsu Vocational College of Medicine.
Chromatographic separation was performed using a Waters Acquity UHPLC system with an Acquity HSS T3 column (1.8 μm, 2.1 × 50 mm, Waters, Milford, MA). Mobile phase A consists of 0.1% aqueous formic acid solution, and mobile phase B consists of 0.1% formic acid acetonitrile. The gradient elution was as follows: 0 to 0.5 min, a linear gradient from 10 to 15% B; 0.5 to 2 min, 15 to 40% B; 2 to 4 min, 40 to 80% B; 4.1 to 5 min, 80 to 99% B; 5.1 to 7 min, a linear gradient back to 10% B. The flow rate was 0.3 mL/min. The column temperature was maintained at 40 °C, and the sample storage compartment was maintained at 4°C. Under these conditions, PUR and berberine hydrochloride were eluted at 2.0 and 3.2 minutes, respectively.
Mass spectrometric detection was performed on a Waters TQD tandem mass spectrometer equipped with an electrospray ionization (ESI) source. The mass spectrometer was operated in multiple reaction monitoring (MRM) positive-ion mode and was quantified using the following transitions: m/z 417.1 > 297.0 for PUR and m/z 336.0 > 320.0 for berberine hydrochloride, and the mass fragment spectrum of PUR and berberine hydrochloride is shown in Figure 2. For all transitions, the cone voltage of 35 V and a collision energy of 30 eV for both PUR and berberine hydrochloride were used, as shown in Table 1. The capillary voltage was set at 2.8 kV, and the source temperature was maintained at 500°C with a gas flow rate of 850 L/h. Argon is used as the collision gas. The cone gas flow was set at 50 L/h. Data acquisition were performed with MassLynx^TM software version 4.1, and quantitation was performed using TargetLynx^TM (Waters, Milford, MA, USA).
Rat plasma sample (100 μL) and IS solution (20 μL, 100 ng/mL) were added to a 1.5 mL Eppendorf tube and vortex-mixed for 30 s, followed by adding 500 μL of acetonitrile to precipitate protein. The mixture was then vortex-mixed for 2 min and centrifuged at 10,000 rpm for 10 min. The supernatant was evaporated to dryness under a stream of nitrogen gas. The obtained residue was reconstituted with methanol-water (80 : 20, v/v), then vortex-mixed for 3min and centrifuged at 13,000 rpm for 10 min. Finally, a 2 μL sample of the supernatant was injected into the UHPLC-MS/MS system for analysis.
The validated method was applied to determine the plasma concentration of PUR in rats after single oral administration of PLE at a dose of 763 mg/kg (equivalent to 100.0 mg/kg of PUR, 1 mL/100g BW) or administration of PUR at a dose of 100 mg/kg (1 mL/100g BW). Twelve male Wistar rats were randomly divided into two groups of six rats each and fasted for 12 h before the experiment. The whole blood samples were collected in heparinized tubes through the suborbital vein of rat at 0.25, 0.5, 0.75, 1, 1.5, 2, 3, 4, 6, 8, 12, 24, 36, and 48 h after gavage administration of drugs. The blood samples were immediately centrifuged at 3,500 rpm for 10 min to obtain plasma. Plasma was stored at −20°C until analysis. […]

[4] = Stability of PUR in rat plasma (QC samples, four storage conditions); format: in vitro ADME; conditions: for Stability (RE, %) Postextraction: extracted rat plasma sample, auto sampler 4°C for 24 h; for Stability (RE, %) Postextraction / Stability (RE, %) 23°C–28°C/24 h / Stability (RE, %) −20°C/30 day / Stability (RE, %) Freeze-thaw (3 cycles): n = 3; for Stability (RE, %) 23°C–28°C/24 h / Stability (RE, %) −20°C/30 day / Stability (RE, %) Freeze-thaw (3 cycles): rat plasma; for Stability (RE, %) Freeze-thaw (3 cycles): −20°C to 25°C
Description: The stock solutions of PUR at a concentration of 200 μg/mL were prepared with methanol. A series of working solutions (4000, 1000, 400, 200, 100, and 40 ng/mL) were then prepared by diluting the stock solution with methanol. A 100 μg/mL IS stock solution was also prepared with methanol. A working solution of IS was prepared at a concentration of 100 ng/mL by diluting the stock solution with methanol. A standard calibration curve was prepared by adding 20 μL of the abovementioned PUR working solution and 20 μL of the IS working solution to 100 μL of blank plasma. The final plasma concentrations of PUR were in the concentration ranges of 800, 200, 80, 40, 20, and 8 ng/mL. QC samples of low, medium, and high concentrations (8, 80, and 720 ng/mL) of PUR were also prepared following the same procedure as described above. All solutions were kept at 4°C until use.
The stability of the PUR in rat plasma was investigated by analyzing QC samples under four different storage conditions, including three freeze-thaw cycles, room temperature 23−28°C for 24 h, −20°C for 30 days, and postextraction stability after the extracted samples being stored in the auto sampler at the temperature 4°C for 24 h. If the accuracy deviation was within ± 15%, the PUR was considered stable.

[5] = parameters: method as in PMID 29099639, PMID 29790819; conditions: coadministered with PUR, compared with the control group; cited from earlier work
[6] = male, Wistar, PUR in rat plasma, oral PUR 100 mg/kg, n = 6, mean ± SD

SMILES: O=c1c(-c2ccc(O)cc2)coc2c([C@@H]3O[C@H](CO)[C@@H](O)[C@H](O)[C@H]3O)c(O)ccc12 [PUR, daidzein-8-C-glucoside]
- increase of intestinal absorption of PUR [1]: 2.7 times
- increase of intestinal absorption of PUR [2]: 2.3 times
- AUC(0-inf) [3, 6]: 220 ± 64.4 ng·h/mL
- AUC(0-t) [3, 6]: 213 ± 61.9 ng·h/mL
- Tmax [3, 6]: 1.46 ± 1.08 h
- half-life [3, 6]: 1.6 ± 0.38 h
- CL/F ([3]; male, Wistar, PUR in rat plasma, oral PUR 100 mg/kg, n = 6, mean ± SD, read-out: CLz/F (converted)): 509 L/h/kg
- MRT last ([3]; male, Wistar, PUR in rat plasma, oral PUR 100 mg/kg, n = 6, mean ± SD, read-out: MRT 0-t): 2.22 ± 0.46 h
- Vd/F ([3]; male, Wistar, PUR in rat plasma, oral PUR 100 mg/kg, n = 6, mean ± SD, read-out: Vz/F): 1200 ± 403 L/kg
- Cmax ([3]; male, Wistar, rat plasma, oral puerarin 100 mg/kg, abstract, read-out: maximum concentration (Cmax) of puerarin): 102 ± 41.8 ng/mL
- shape of plasma concentration-time curve of PUR ([3]; oral pure PUR 100 mg/kg, rats): no double-peak phenomenon
- Stability (RE, %) Postextraction ([4]; 8.0 ng/mL): −7.7%
- Stability (RE, %) Postextraction ([4]; 80.0 ng/mL): −6.3%
- Stability (RE, %) Postextraction ([4]; 720.0 ng/mL): 5.9%
- Stability (RE, %) 23°C–28°C/24 h ([4]; 8.0 ng/mL): 11.5%
- Stability (RE, %) −20°C/30 day ([4]; 8.0 ng/mL): 11.4%
- Stability (RE, %) Freeze-thaw (3 cycles) ([4]; 8.0 ng/mL): 9.3%
- Stability (RE, %) 23°C–28°C/24 h ([4]; 80.0 ng/mL): 6.5%
- Stability (RE, %) −20°C/30 day ([4]; 80.0 ng/mL): 6.2%
- Stability (RE, %) Freeze-thaw (3 cycles) ([4]; 80.0 ng/mL): 5.6%
- Stability (RE, %) 23°C–28°C/24 h ([4]; 720.0 ng/mL): 8.7%
- Stability (RE, %) −20°C/30 day ([4]; 720.0 ng/mL): −4.7%
- Stability (RE, %) Freeze-thaw (3 cycles) ([4]; 720.0 ng/mL): −5.1%
- stability in rat plasma under four tested conditions ([4]; three freeze/thaw cycles, −20°C for 30 days, 23°C to 28°C for 24 h, postextraction 4°C for 24 h, stable if deviation within ± 15%): stable

SMILES: CC(C)(O)[C@@H]1CC[C@](C)([C@H]2[C@@H](O)C[C@@]3(C)[C@@H]4C[C@H](O[C@@H]5O[C@H](CO)[C@@H](O)[C@H](O)[C@H]5O)[C@H]5C(C)(C)[C@@H](O[C@@H]6OC[C@@H](O)[C@H](O)[C@H]6O)CC[C@@]56C[C@@]46CC[C@]23C)O1 [astragaloside IV]
- effect on Tmax, Cmax, and AUC0-t of PUR [5]: significantly reduce

SMILES: CC1(C)[C@@H](O[C@H]2O[C@H](C(=O)O)[C@@H](O)[C@H](O)[C@H]2O[C@@H]2O[C@H](C(=O)O)[C@@H](O)[C@H](O)[C@H]2O)CC[C@]2(C)[C@H]3C(=O)C=C4[C@@H]5C[C@@](C)(C(=O)O)CC[C@]5(C)CC[C@@]4(C)[C@]3(C)CC[C@@H]12 [glycyrrhizin]
- effect on Tmax, Cmax, and AUC0-t of PUR [5]: significantly reduce
